Publication PMC5175178, “Development of an in-vivo active reversible butyrylcholinesterase inhibitor” (Scientific Reports, 2016)

Columns and labels:
[1] = test system: Aβ(1–42)-induced cytotoxicity in SH-SY5Y cells; test: Neuroprotection against Aβ(1–42)-induced cytotoxicity, PI flow cytometry; type: cell-based, human; details: 10 μM, 5 μM Aβ(1–42), 48 h
Description: Neurotoxicity induced by Aβ species (mainly Aβ(1–42)) is a contributor to the pathogenesis of neurodegeneration in AD[41]. […]. […] […].
Supplementary Figure 8. […]. […].
[…]; Sigma, St. Louis, MO, USA). […] SH-SY5Y cells were seeded into a 24-well culture plate (1.2 ×10^5/well) and next day, treated as described above. After 48 h treatment, cells were washed with pre-warmed PBS and further stained with PI solution (30 µM) for 15 min at 37 °C. Cells were then analyzed for cytotoxicity by flow cytometry on FACS Calibur (BD Bioscience, San Jose, CA, USA). The percentage of PI positive cells (PI^pos) was evaluated using FlowJo software (Ashland, OR, USA) and results are presented as a relative fold increase of PI^pos corresponding vehicle treatment (DMSO control).

[2] = test system: scopolamine-induced memory impairment in mice; test: Two-day radial arm water maze task, scopolamine-induced memory impairment; type: in vivo, C57BL/6J mice
Description: In this task incorrect arm entries (i.e., errors) are counted. […] The mice had free access to food and water, and the ambient temperature and humidity of the room were kept constant throughout all of the tests. For the behavioral tasks, the mice were selected at random, and each group consisted of 8 to 10 mice dose^−1. The experiments were performed between 08:00 and 14:00. Immediately after these in-vivo assays, the animals were euthanized by cervical dislocation. […] All efforts were made to minimize the number of mice used and their suffering.
C57BL/6J mice were subjected to the radial arm water maze paradigm^34,35. The main part of the apparatus (Panlab Harvard Apparatus, Spain) consists of a 6-arm maze in a pool filled with water to approximately 10 cm from the top, to be high enough to cover the hidden platform by about 0.5 cm, but also low enough that the visible platform was not covered. The pool was regularly cleaned of any debris left by the mice. The temperature of the water was kept constant during testing (23 ±1 °C). The tester remained in the same position throughout the testing, thus providing an additional visual cue for the mice.
On day 1, 15 trials were run in five blocks of three. Each trial lasted up to 60 s. The start arm was varied for each trial, with the goal arm remaining constant for a given individual for both days^34,35. For the first 12 trials, the platform was alternately visible, then hidden, and then hidden for the last three trials. On day 2, the mice (without drug treatment on this day) were run in the same manner as on day 1, but the platform was hidden for all of the trials. As errors have been reported to be the most sensitive measure in this assay^34, the number of errors (i.e., incorrect arm entries made) was counted in a 60 s time-frame. Incorrect arm entries occurred when the mouse selected an arm that was not the goal arm. Entries into the goal arm were not counted as errors, even if the platform was not located. An entry was considered to occur when all four legs of the mice had entered the alley completely. […] If the platform was not located within 60 s, the mice were gently guided through the water by placing a hand behind the animal to direct its swimming direction toward the platform. […] After that, the mouse was gently removed from the platform and thoroughly dried using cellulose paper before placing it back into its home cage under a heat source (a heat lamp).
For the statistical analysis of the data obtained, to minimize the impact of individual trial variability, each mouse error for the finding of the platform for three consecutive trials were averaged, giving five data points (5 trial blocks): T1 (trials 1–3), T2 (trials 4–6), T3 (trials 7–9), T4 (trials 10–12) and T5 (trials 13–15), separately for each day of testing.

mice = test: Observation of acute cholinergic adverse effects; type: in vivo; details: even at 100 mg kg^−1
HepG2 cells = test: Cytotoxicity in HepG2 cells, MTS metabolic activity assay; details: 24 h
Description: After 24 h (a) or 48 h (b), the cell viability was evaluated using the MTS assay. The control group (DMSO) was considered as 100% cell viability. Data are means ±SD of at least three independent experiments, each carried out in triplicate (a) and quadruplicate (b).
HepG2 cells (1 ×10^4 cells/well) were treated for 24 h with the appropriate concentrations of the compounds of interest or the corresponding vehicle (control cells), in triplicates in 96-well plates. The metabolic activities were determined using the CellTiter 96 Aqueous One Solution Cell Proliferation Assay (Promega, WI/USA), according to the manufacturer instructions.

[3] = test system: scopolamine-induced memory impairment in mice; test: Morris water maze task, scopolamine-induced memory impairment
Description: In this task the time taken to reach the hidden platform (i.e., the escape latency time), the distance travelled, and the mean speed of swimming are recorded for each experimental group. […] For the behavioral tasks, the mice were selected at random, and each group consisted of 8 to 10 mice dose^−1. The experiments were performed between 08:00 and 14:00. Immediately after these in-vivo assays, the animals were euthanized by cervical dislocation. […] All efforts were made to minimize the number of mice used and their suffering.
The Morris water maze is a circular, plastic, grey-painted pool (diameter, 120 cm; height, 60 cm), filled with water (up to about 48 cm below the edge, to prevent an animal from jumping out) that was maintained at 23 ±1 °C. The pool was divided into four equal quadrants (compass locations: NE, NW, SE, SW) by a computerized video tracking system (SMART, ver. 3.0; Panlab, Spain). An escape platform (diameter, 11 cm; height, 47 cm) at a fixed location (the center of the NW quadrant; i.e., the target quadrant). The escape platform was made of transparent Plexiglas and was immersed 1 cm under the surface of water; this was invisible to the swimming mouse. The maze was lighted with the intensity of 45 lx.
During the spatial acquisition trial (six consecutive days), the mice were assigned to training sessions (four training sessions a day; 4 h apart) in which the mice were trained to escape from the water by reaching the hidden platform, the location of which could be identified using distal extra-maze cues (A4-sized sheets of black laminated paper with colored geometric symbols) attached to the room walls to provide navigation points^31. Visual cues had different colors and dimensions, and were kept constant during the whole experiment^31,32. The whole experiment was conducted by an experimenter who remained always stationary in a constant location, thus serving as an additional distal cue for the swimming mice. […] The time taken to reach the hidden platform (escape latency time), distance travelled to reach the platform, and mean speed were recorded in each experimental group and analyzed.
On the seventh day (24 h after the last training) the platform was removed from the pool and a probe trial was performed (without drug treatment). Each animal was released from a different start point and was allowed to swim for 60 s. […] Latency time to the first crossing of the former platform location (target zone), number of crossings of the target zone, time spent in the target NW quadrant, total distance, distance spent in NW quadrant, entries into the NW quadrant, and mean speed were measured^31.

[4] = probe trial day 7, scopolamine + 30 mg kg^–1

COCCN(CC1CCCN(Cc2ccccc2)C1)S(=O)(=O)c1ccc2ccccc2c1 (racemic) [compound 2, (±)-N-((1-benzylpiperidin-3-yl)methyl)-N-(2-methoxyethyl)naphthalene-2-sulfonamide]
neuroprotective effect on Aβ(1–42)-induced cell death [1]: reversed Aβ(1–42)-induced cell death | errors at the end of the acquisition phase (day 1) ([2]; scopolamine + 30 mg kg^−1): < 1 error | errors in the last trial block of day two ([2]; scopolamine + 30 mg kg^−1 on day 1): < 1 error | acute cholinergic adverse effects (mice): no acute cholinergic adverse effects | LD50 HepG2 cells (HepG2 cells): 58.67 µM | distance travelled to reach the platform ([3]; day 3, scopolamine + 30 mg kg^−1): 5.38 m | distance travelled to reach the platform ([3]; day 5, scopolamine + 30 mg kg^−1): 1.69 m | Distance in goal quadrant (% ±SEM) [3, 4]: 45.35 ±2.6 F[2,25] = 0.2035; NS % | Entries in zone NW (n ±SEM) [3, 4]: 7.3 ±0.7 F[2,25] = 14.59; p <0.0001 n | Latency time (s ±SEM) [3, 4]: 1.2 ±0.4 F[2,25] = 1.792; NS s | Number of NW zone crossings (n ±SEM) [3, 4]: 2.6 ±0.5 F[2,25] = 2.182; NS n | Time in target (NW) quadrant (s ±SEM) [3, 4]: 29.3 ±1.5 F[2,25] = 0.8737; NS s | Total distance covered (m ±SEM) [3, 4]: 11.5 ±0.6 F2,25] = 0.3439; NS m | mean speed of swimming ([3]; scopolamine + compound 2 30 mg kg^−1 (vehicle 0.17)): 0.16 m s^−1
